{
  "source": "patent US10550388B2",
  "about": "“Targeting pleiotrophin signaling to limit high-grade glioma invasion” (The Board of Trustees of the Leland Stanford Junior …, priority 2017, dated 2020)",
  "key": {"[1]": {"conditions": "rodent models (Egorin et al. 2001); cited from earlier work"}, "[2]": {"system": "SU-DIPG-XIII FL cells", "assay": "Matrigel invasion assay (Boyden chamber) of DIPG cells", "format": "cell-based, human", "conditions": "72 hours; for DIPG invasion toward SVZ hNPC CM: inhibitor added to the cells in the top insert, dose curve, vehicle DMSO control", "method": "To test for chemoattraction and invasion toward neural precursor cell conditioned media or another candidate chemoattractant, a single-cell suspension of 100,000 DIPG cells in Tumor Stem Media (TSM) base (with B27 (−A) and heparin, without growth factors) was seeded in the top inserts of BioCoat growth factor reduced Matrigel invasion chambers (Corning, Bedford, Mass.), after rehydration of the inserts. Chemoattractant media was added to the bottom of the chamber. All conditions were plated in triplicate. After 72 hours, media was aspirated, and the non-invading cells on top of the layer of Matrigel were scrubbed off. The invading cells were fixed in 4% paraformaldehyde and then stained with 0.1% crystal violet in 10% methanol in distilled water. The number of invading cells was quantified by the intensity of the crystal violet dye on the invading side of the Matrigel. The dye was collected in 10% acetic acid, and absorbance was measured at 595 nm.\nTo test the ROCK or HSP90 inhibitors in the Matrigel invasion assay, the inhibitors were added to the suspension of glioma cells in TSM base (with B27 (−A) and heparin) seeded in the top inserts at the appropriate concentrations, and neural precursor cell conditioned media was plated in the bottom chambers. The rest of the procedure was performed as described above."}, "[3]": {"system": "SU-DIPG-XIII FL cells", "assay": "CellTiter-Glo cell viability assay", "format": "cell-based, human", "conditions": "increasing doses of inhibitor; 72 hours", "method": "To assess cell viability, 5,000 DIPG cells per well were seeded in base media or full growth media in a 96-well plate. Inhibitors were added at the appropriate concentrations. After 72 hours, CellTiter-Glo reagent 2.0 was added at a 1:1 ratio, and cells were lysed. Luminescence was measured after stabilization of signal for 10 minutes at room temperature."}, "[4]": {"system": "SU-DIPG-XIII FL cells", "assay": "shRNA-expressing lentivirus injected into the SVZ of orthotopically xenografted mice", "format": "in vivo, NSG mice", "conditions": "vs scrambled shRNA control; for DIPG cells invading the SVZ: 16 weeks following pontine xenograft", "method": "NSG mice at age P34-36 were orthotopically xenografted with SU-DIPG-XIII frontal lobe CMV-GFP-luciferase cells, in a similar procedure to as previously described (Grasso et al., supra; Venkatesh et al. (2015) Cell 161, 803-816). Briefly, a single-cell suspension of SU-DIPG-XIII frontal lobe CMV-GFP-luciferase cells at passage 16-19 was prepared in sterile HBSS immediately before beginning the xenograft procedure. 600,000 cells in 3 μL were stereotactically injected into the pons of the left hemisphere of NSG mice, through a 31-gauge burr hole. Stereotactic coordinates used were: 1 mm lateral to midline, 0.8 mm posterior to lambda suture, and 5 mm deep. Cells were injected at a rate of 0.4 μL/min using a digital pump and a 31-gauge Hamilton syringe. After infusion of cells, the syringe needle was kept in place for 2 minutes, and then withdrawn manually at a rate of 0.875 mm/min to minimize the backflow of cells.\n(§1) Mice used for shRNA lentivirus studies received shRNA-expressing lentivirus in the SVZ at P27-29 and DIPG cells in the left pons at P34-36. For lentiviral injections, 2 μL of shRNA-expressing lentivirus were stereotactically injected into the SVZ. Stereotactic coordinates used were: 1.3 mm lateral to midline, 0.1 mm posterior to bregma suture, and 2 mm deep. Virus was injected and the needle was withdrawn according to the same procedure as described above.\nMice were imaged using an IVIS Spectrum to ensure tumor engraftment and monitor tumor size. Mice were anesthetized under 1% isoflurane, intraperitoneally injected with luciferin (15 mg/kg), and imaged for bioluminescence every minute until the peak total flux was reached.\nFor quantification of DIPG invasion of the SVZ after knock down of targets in the SVZ, 5 NSG mice per group were injected with shRNA-expressing lentivirus in bilateral SVZs and orthotopically xenografted with SU-DIPG-XIII FL in the left pons. Mice were perfused for analysis 16 weeks after xenograft. A 1:6 series of coronal slices from each mouse brain was immunostained and imaged, and the number of GFP^+ HNA^+ glioma cells within 200 μm of the lateral ventricles in all slices containing lateral ventricles was manually counted.\nFor quantification of neural stem/precursor cells in the SVZ after knock down of PTN in the SVZ, a 1:6 series of coronal slices from each mouse was immunostained and imaged, and the number of Sox2^+ neural stem/precursor cells in a 20×Z-stack was manually counted. The density of Sox2^+ cells was calculated as cells/mm^3."}, "[5]": {"system": "pleiotrophin", "assay": "Knockdown of pleiotrophin expression in the mouse SVZ", "format": "in vivo", "conditions": "stereotactic injection into the mouse SVZ; vs scrambled shRNA control", "method": "as §1\nMice were intraperitoneally injected with Avertin (tribromoethanol) for anesthesia, and then transcardially perfused with 20 mL of ice-cold PBS. Brains were dissected out and fixed in 4% paraformaldehyde in PBS overnight at 4° C., and were then transferred to 30% sucrose in PBS for cryoprotection. Brains were embedded in Tissue-Tek O.C.T. (Sakura, Torrance, Calif.). Brains from mice older than P10 were sliced into 40 μm coronal or sagittal sections using a sliding microtome (Microm HM450; Thermo Scientific, Waltham, Mass.). Brains from mice age P0 to P10 were sliced into 25 μm coronal sections using a cryostat (Leica Biosystems CM3050 S; 1058 Wetzlar, Germany). For immunohistochemistry, a 1 in 6 series of 25 μm or 40 μm sections was incubated in blocking solution (3% normal donkey serum, 0.3% Triton X-100 in TBS) at room temperature for 1 hour. […]"}},
  "data": [
    {"compound": "C=CCNC1=C2C[C@@H](C)C[C@H](OC)[C@H](O)[C@@H](C)/C=C(\\C)[C@H](OC(N)=O)[C@@H](OC)/C=C\\C=C(/C)C(=O)NC(=CC1=O)C2=O", "note": "[17-AAG, tanespimycin, reference compound]", "values": [
      {"measurement": "Brain penetration", "setting": "[1]", "result": "less than 1 μM"},
      {"measurement": "concentrations at which invasion toward SVZ hNPC CM is decreased", "setting": "[2]; in vitro, inhibitor in the top insert", "result": "above 1 μM"}
    ]},
    {"compound": "CCn1c(-c2nonc2N)nc2cnc(Oc3cccc(NC(=O)c4ccc(OCCN5CCOCC5)cc4)c3)cc21", "note": "[GSK 269962A, reference compound]", "values": [
      {"measurement": "cell viability of DIPG cells", "setting": "[3]", "result": "do not affect cell viability at sub-μM concentrations"},
      {"measurement": "DIPG invasion toward SVZ hNPC CM", "setting": "[2]", "result": "decreased DIPG invasion toward SVZ hNPC CM in a dose-dependent manner"}
    ]},
    {"compound": "CC1=C(C(=O)Nc2cc3cn[nH]c3cc2F)C(c2ccc(C(F)(F)F)cc2)CC(=O)N1", "note": "(stereo not drawn) [GSK 429286, reference compound]", "values": [
      {"measurement": "cell viability of DIPG cells", "setting": "[3]", "result": "do not affect cell viability at sub-μM concentrations"},
      {"measurement": "DIPG invasion toward SVZ hNPC CM", "setting": "[2]", "result": "decreased DIPG invasion toward SVZ hNPC CM in a dose-dependent manner"}
    ]},
    {"compound": "sh-Ptn: lentivirus-expressed shRNA against mouse PTN, Sigma TRCNO000071676, SEQ ID NO: 8 (CCGGGCACAATGCTGACTGTCAGAACTCGAGTTCTGACAGTCAGCATTGTGCTTTTTG)", "values": [
      {"measurement": "DIPG cells invading the SVZ", "setting": "[4]", "result": "fewer orthotopically xenografted GFP^+ HNA^+ SU-DIPG-XIII FL cells invaded the SVZ"},
      {"measurement": "DIPG cells invading the SVZ", "setting": "[4]; listed as shRNA targeting Ptn", "result": "fewer DIPG cells invaded the SVZ"},
      {"measurement": "density of Sox2+ neural stem/precursor cells in the SVZ", "setting": "[4]", "result": "equivalent"},
      {"measurement": "tumor engraftment (bioluminescent flux)", "setting": "[4]", "result": "equivalent"},
      {"measurement": "density of Sox2+ neural stem/precursor cells in the SVZ", "setting": "[4]; listed as Ptn shRNA", "result": "equivalent numbers of Sox2^+ NPCs"},
      {"measurement": "knockdown of pleiotrophin expression", "setting": "[5]", "result": "effective knockdown of pleiotrophin expression"}
    ]}
  ]
}
